Values joined by “and” are separate entries in the source; they are usually repeats but may differ in a detail not shown here. Equal entries are not always repeated.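 1) Cells in 96-well plates. 2) Compound, 48 h, 5 concentrations. 3) Linear interpolation between surrounding doses. 4) Unreached endpoint = highest concentration. Abbreviation: GI50, concentration required for 50% inhibition of growth. At the TGI there is no net growth.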
Columns and labels:
Experiment in all cases: inhibition of tumour cell growth, NCI panel, 48 h
[1] = test system: DLD-1 colon
[2] = test system: DMS 114 small cell lung
[3] = test system: HCT-15 colon
[4] = test system: HL-60(TB) leukemia
[5] = test system: HOP-62 NSCLC
[6] = test system: M19-MEL melanoma
[7] = test system: MOLT-4 leukemia
[8] = test system: SK-MEL-2 melanoma
[9] = test system: SK-OV-3 ovarian
[10] = test system: SNB-19 CNS
[11] = test system: U251 CNS
[12] = test system: DMS 273 small cell lung
[13] = test system: XF 498 CNS

SMILES	TGI [1]	TGI [2]	TGI [3]	TGI [4]	TGI [5]	TGI [6]	TGI [7]	TGI [8]	TGI [9]	TGI [10]	TGI [11]	TGI [12]	GI50 [3]	GI50 [4]	GI50 [5]	GI50 [7]	GI50 [8]	GI50 [9]	GI50 [10]	TGI [13]
O=C(/C=C/CC(O)(c1ccccc1)c1ccccc1)Nc1ccccc1Cl	> 100 µM	> 100 µM	> 100 µM	> 100 µM	> 100 µM	> 100 µM	> 100 µM	> 100 µM	> 100 µM	> 100 µM	> 100 µM									
O=C(CCl)Nc1ccc(C(=O)N/N=C/c2ccc(Cl)cc2)cc1	4.93 µM	2.94 µM	3.74 µM and 9.73 µM	6.51 µM and 3.77 µM	3.45 µM and 14.7 µM	25.6 µM	6.28 µM and 5.35 µM	4.14 µM and 14.7 µM	8.02 µM and 24.7 µM	5.74 µM and 20.1 µM	3.61 µM and 3.24 µM	4.12 µM	1.48 µM	1.19 µM	1.74 µM	2.44 µM	2.28 µM	12.3 µM	3.09 µM	3 µM
COc1ccc(C(=C2C(=O)OC(=O)C2=C(C)C)c2ccc(OC)cc2)cc1			> 100 µM	84.3 µM	> 100 µM		> 100 µM	> 100 µM	> 100 µM	> 100 µM	> 100 µM									
O=C(O)C(CS)N=Cc1nc(-c2ccccc2)oc1O (centres undefined)	> 100 µM	> 100 µM	> 100 µM	> 100 µM	> 100 µM	> 100 µM	> 100 µM	> 100 µM	> 100 µM	> 100 µM	> 100 µM	> 100 µM								
CN(C)CN1C(=O)/C(=N\n2c(-c3ccncc3)n[nH]c2=S)c2ccccc21			> 100 µM	37 µM	84.7 µM		45.4 µM	50.5 µM	> 100 µM	> 100 µM	> 100 µM									
O=C1c2cccnc2C(=O)c2c1nc1ccccc1c2-c1ccc2c3c(nc4ccccc42)C(=O)c2cccnc2-c13			1.76 µM	5.42 µM	22.9 µM		5.66 µM	14.1 µM	18.5 µM	7.92 µM	9.01 µM									
CCCCCc1cc(CCCC)sc1-c1ccco1			> 100 µM	58.8 µM	> 100 µM		> 100 µM	> 100 µM	> 100 µM	> 100 µM	> 100 µM									
O=c1n(CCCN2CCOCC2)nc2n1-c1ccc3ccccc3c1SC2			67.2 µM	97.8 µM	> 100 µM		> 100 µM	> 100 µM	> 100 µM	> 100 µM	> 100 µM									
C=CCN(c1cc(OC)c2[nH]c(C(=O)O)c(C)c2c1[N+](=O)[O-])S(C)(=O)=O			> 100 µM	> 100 µM	> 100 µM		> 100 µM	> 100 µM	> 100 µM	> 100 µM	> 100 µM									
O=C(O)CCSc1ncnc2nc[nH]c12			> 100 µM	> 100 µM	> 100 µM		> 100 µM	> 100 µM	> 100 µM	> 100 µM	> 100 µM									
COC(=O)[C@@H]1[C@H]2CC[C@]3(C)[C@@H](OC(C)=O)CC[C@H]3[C@@H]2CC[C@H]1C1(C)SCCS1			> 100 µM	36.8 µM	53.6 µM		59.3 µM	40 µM	> 100 µM	> 100 µM	54.4 µM									
Fc1cccc(F)c1C1SCc2nc3cc(Cl)ccc3n21 (centres undefined)			> 100 µM	41.3 µM	> 100 µM		54.7 µM	> 100 µM	> 100 µM	> 100 µM	> 31.6 µM									
COc1ccc2c(c1)CCC(CN1CCN(CCOC(c3ccccc3)c3ccccc3)CC1)C2O (centres undefined)			23 µM	15.2 µM	38.3 µM		35.7 µM	33 µM	35.8 µM	33.6 µM	28 µM									
O=C1CCCC2=C1CC1=C(CCCC1=O)N2c1ccc(-c2ccccc2)cc1			> 100 µM	> 100 µM	> 100 µM		> 100 µM	> 100 µM	> 100 µM	> 100 µM	> 100 µM									
O=c1cccc2n1CC1CNCC2C1 (centres undefined)			> 100 µM	> 100 µM	> 100 µM		> 100 µM	> 100 µM	> 100 µM	> 100 µM	> 100 µM									
Cc1ccc(S(=O)(=O)N2CCc3cc(O)c([N+](=O)[O-])cc32)cc1			> 100 µM	> 100 µM	> 100 µM		> 100 µM	> 100 µM	> 100 µM	> 100 µM	> 100 µM									
Cc1nc2ccccc2n1Cc1ccc(NC(=S)Nc2ccccc2)cc1			> 100 µM	> 100 µM	> 100 µM		> 100 µM	> 100 µM	> 100 µM	> 100 µM	> 100 µM									
CCOC(=O)OC1(c2ccccc2)CCN(C)CC1			> 100 µM	> 100 µM	> 100 µM		> 100 µM	> 100 µM	> 100 µM	> 100 µM	> 100 µM									
CN(C)C(=O)/N=C1\SC(=Nc2ccccc2)C(=Nc2ccccc2)N1c1ccc([N+](=O)[O-])cc1			> 100 µM	> 100 µM	> 100 µM		> 100 µM	> 100 µM	> 100 µM	> 100 µM	> 100 µM									
CCc1nc2c([nH]1)C(=O)c1ccccc1C2=O	> 100 µM	70.6 µM	> 100 µM	94.7 µM	> 100 µM	31.8 µM	> 100 µM	> 100 µM	> 100 µM	> 100 µM	> 100 µM	> 100 µM								67.1 µM
O=c1ccn([C@@H]2C=C(CO)[C@@H](O)[C@H]2O)c(=O)[nH]1	> 625 µM		> 625 µM	> 625 µM	> 625 µM			> 625 µM	> 625 µM	> 625 µM	> 625 µM	> 625 µM								< 0.0625 µM

Reference: PubChem BioAssay (NCI)
